pKd: −log10 of the molar value.
How the values were obtained:
[1] = target: bovine serum albumin (BSA) (Bos taurus, UniProt P02769); assay type: binding; conditions: 310 K; for critical [PFAS]:[BSA] ratio denoting the shift from binding site to surface adsorption: Δδ begins to plateau
[2] = United States population, 2015–2016; cited from earlier work
[3] = estimated; cited from earlier work
[4] = system: HSA; conditions: 310 K; cited from earlier work

Sequence of bovine serum albumin (BSA) (P02769 25-607): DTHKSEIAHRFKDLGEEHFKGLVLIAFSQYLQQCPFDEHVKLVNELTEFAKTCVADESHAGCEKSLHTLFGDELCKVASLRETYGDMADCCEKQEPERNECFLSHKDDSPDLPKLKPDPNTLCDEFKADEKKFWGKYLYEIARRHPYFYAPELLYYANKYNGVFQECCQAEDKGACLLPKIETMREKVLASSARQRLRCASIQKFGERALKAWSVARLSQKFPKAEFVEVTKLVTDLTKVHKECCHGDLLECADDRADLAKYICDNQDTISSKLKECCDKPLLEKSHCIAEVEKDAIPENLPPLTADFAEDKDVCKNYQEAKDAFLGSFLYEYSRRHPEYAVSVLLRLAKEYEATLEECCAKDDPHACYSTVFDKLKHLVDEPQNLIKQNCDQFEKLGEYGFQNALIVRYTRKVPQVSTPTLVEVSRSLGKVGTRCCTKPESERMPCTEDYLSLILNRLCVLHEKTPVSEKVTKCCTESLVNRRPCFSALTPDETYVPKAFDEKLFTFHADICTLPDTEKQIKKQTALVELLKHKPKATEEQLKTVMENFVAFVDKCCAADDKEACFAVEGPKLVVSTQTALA

Row | Structure (SMILES) | critical [PFAS]:[BSA] ratio denoting the shift from binding site to surface adsorption [1] | average serum concentration [2] | Ka for binding to HSA [4] | other results
1 | O=S(=O)(O)C(F)(F)C(F)(F)C(F)(F)C(F)(F)C(F)(F)C(F)(F)F [PFHxS, perfluorohexanesulfonic acid] | 12–14 | 0.577 µg/L | – | –
2 | O=C(O)C(F)(F)C(F)(F)C(F)(F)C(F)(F)C(F)(F)C(F)(F)C(F)(F)C(F)(F)F [PFNA, perfluorononanoic acid] | 12–14 | 1.18 µg/L | – | half-life in humans [3]: 2.5 years
3 | O=C(O)C(F)(F)C(F)(F)C(F)(F)C(F)(F)C(F)(F)C(F)(F)C(F)(F)F [PFOA, perfluorooctanoic acid] | 12–14 | 1.56 µg/L | – | pKd ([1]; Ka (ω, terminal −CF3 position), BSA, pH 7.4 PBS, Ka=Kd^−1): 5.19
4 | O=S(=O)(O)C(F)(F)C(F)(F)C(F)(F)C(F)(F)C(F)(F)C(F)(F)C(F)(F)C(F)(F)F [PFOS, perfluorooctanesulfonic acid] | – | 4.72 µg/L | – | Ka (ω, terminal −CF3 position) ([1]; BSA, pH 7.4 PBS, Ka=Kd^−1): 357 mM⁻¹; half-life in humans [3]: 5.4 years
5 | CCCCCCCCCC(=O)O [decanoic acid] | – | – | 100 mM⁻¹ | –
6 | CCCCCC(=O)O [hexanoic acid] | – | – | 15 mM⁻¹ | –
7 | CCCCCCCC(=O)O [octanoic acid] | – | – | 34 mM⁻¹ | –

Reference: paper PMC8479757 (Chemosphere, 2020)
